Source: US6419922B1, “Candida saitoana compositions for biocontrol of plant postharvest decay” (Biotechnology Research and Development Corporation, priority 1998, dated 2002)

Tests used:
Botrytis cinerea = experiment: Inhibition of spore germination in 24-well microtiter dish; assay type: cell-based; settings: for Inhibition of Germination (%) Botrytis cinerea: five hundred spores per well, 0.2% maltose extract broth, 24° C., after 24 hours
Procedure: The inhibitory activity of antifungal enzymes, in this example, lysozyme and lyticase, against the pathogen Botrytis cinerea, was determined in a 24-well microtiter dish. Autoclaved solutions of 0.2% maltose extract broth were amended with membrane-sterilized solutions of lysozyme and lyticase to obtain a concentration of 0.1% and 0.5% of lysozyme and lyticase, respectively. One hundred microliters of the enzyme solution was dispensed into each well. Each well was inoculated with five hundred spores of B. cinerea. Four replicates of eight wells were used for each treatment. Microtiter dishes were incubated in the dark at 24° C. Percent spore germination was determined after 24 hours. Spores were inhibited by either enzyme.

Candida saitoana = experiment: Survival of Candida saitoana in enzyme solutions (yeast maltose broth); assay type: cell-based; settings: for Yeast Cell Counts (CFU/ml) 1 day / Yeast Cell Counts (CFU/ml) 4 days: inoculated with 10^4 yeast cells/ml, yeast maltose broth
Procedure: The effect of lysozyme and lyticase on the survival of C. saitoana in yeast maltose broth was also determined. Culture flasks containing sterile solutions of 0.2% yeast maltose broth were amended with membrane-sterilized solutions of lysozyme and lyticase to obtain a concentration of 0.1% and 0.6% of lysozyme and lyticase, respectively. Each flask was started with approximately 10^4 colony forming units (CFU) of yeast and the flasks were incubated on an orbital shaker set at 200 rpm. Samples were collected and dilution-plated in duplicate on yeast-maltose agar medium. The plates were incubated 24° C. and colonies were counted after 48 h.

Penicillium digitatum [1] = experiment: Protective effect on decay of wounded orange and lemon fruit, treated then challenge inoculated; assay type: in vivo; settings: wounds treated then inoculated with 20 μL P. digitatum 10^4 conidia/ml, 7 days at 24° C.
Procedure: (§1) Yeast cells from 48 hour old cultures of C. saitoana were pelleted by centrifugation, resuspended in sterile distilled water, and centrifuged. Pellets were suspended in water, 0.01% and 0.1% lysozyme of 0.6% lyticase, and the concentration of the yeast suspension was adjusted to 10^8 CFU/ml.
(§2) Apple, orange, and lemon fruit were individually wounded and each wound was treated with fifty microliters of one of the following treatments:
yeast cell suspension (C. saitoana);
yeast cell suspension containing 0.01% or 0.1% lysozyme;
yeast cell suspension containing 0.6% lyticase;
(§3) Fruit wounds were either treated with the different treatments and then inoculated with 20 μL of a pathogen spore suspension to determine protective effects, or inoculated with a pathogen spore suspension and 24 hours later were treated with the different treatments to determine curative effects. Apple wounds were inoculated (i.e., pathogens were placed in the wound) with the pathogens B. cinerea and P. expansum, whereas orange and lemon wounds were inoculated with P. digitatum. Treated fruit were incubated at 24° C. in plastic trays at high humidity. For each treatment, 20 to 100 fruit were arranged in a randomized complete block design. Percent infection was determined for each treatment after 7 days of storage. The tests were repeated twice. […] The effect was greater than for either agent alone.

P. expansum = experiment: Curative effect on established infection of apple fruit (treated 24 hours after inoculation); assay type: in vivo, Penicillium expansum; settings: treatment 24 hours after inoculation
Procedure: as §1, §2, §3
(§4) In the past, the lack of curative activity has been identified as a major limitation of biological approaches to pathogen control.

P. digitatum = experiment: Curative effect on established infection of citrus fruit (treated 24 hours after inoculation); assay type: in vivo, Penicillium digitatum; settings: treatment 24 hours after inoculation
Procedure: as §1, §2, §3, §4

Penicillium digitatum [2] = experiment: Natural infection of orange and lemon fruit, semi-commercial on line spray treatment; assay type: in vivo; settings: line spray within 48 hours after harvest, 50-55° F., after 3 weeks
Excerpt: Additional tests were also done to determine the effect of different combinations of biochemicals and microorganisms on natural infections of citrus fruit. Orange and lemon fruit from field bins were washed on line following standard commercial practices [Standard Pre Chlorine was (50 ppm); size and color blemish sorting, and randomized]. Thereafter the fruit was washed and treated with either water, a yeast cell suspension containing 0.1% lysozyme, or Imazalil using an on line spray system. Each treatment consisted of at least 8 to 13 boxes of fruit; each box representing a replicate of approximately 60 to 100 fruit. The fruit was held at 50-55° F. and the percentage of decay was determined after 3 weeks.

Row | Compound | Inhibitory activity against Botrytis cinerea spores (in words) (Botrytis cinerea) | Inhibition of Germination (%) Botrytis cinerea (Botrytis cinerea) | Effect on growth / survival of the yeast C. saitoana (in words) (Candida saitoana) | Yeast Cell Counts (CFU/ml) 1 day (Candida saitoana) | Yeast Cell Counts (CFU/ml) 4 days (Candida saitoana) | Infected Fruit (%) Penicillium digitatum Lemon (Penicillium digitatum [1]) | Infected Fruit (%) Penicillium digitatum Orange (Penicillium digitatum [1]) | Infected Fruit (%) Penicillium digitatum Orange (Penicillium digitatum [1]; listed as 0.01% lysozyme) | Effect on established infection caused by P. expansum (in words) (P. expansum) | Effect on established infection caused by P. digitatum (in words) (P. digitatum) | Infected Fruit (%) Penicillium digitatum Lemon (Penicillium digitatum [2]; lemon) | Infected Fruit (%) Penicillium digitatum Orange (Penicillium digitatum [2]; orange) | Infected Fruit (%) Penicillium digitatum Orange (Penicillium digitatum [1]; listed as 0.1% lyticase)
1 | lysozyme | inhibitory | 100% | no effect | >2.0 × 10^5 CFU/ml | >2.0 × 10^5 CFU/ml | 86b % | 88% | 88b % | little effect | little effect |  |  | 
2 | C=CCOC(Cn1ccnc1)c1ccc(Cl)cc1Cl (stereo not shown) [Imazalil] |  |  |  |  |  |  |  |  |  |  | 4.6b % | 2.4b % | 
3 | lyticase | inhibitory | 100% | no effect | >2.0 × 10^5 CFU/ml | >2.0 × 10^5 CFU/ml | 85b % | 88% |  | little effect | little effect |  |  | 88b %
